Tested on: human elastin promoter
Assay: human elastin promoter activity by CAT assay in transgenic mouse fibroblast cultures exposed to hypoxanthine/xanthine oxidase
Type: cell-based
Settings: 10,000 U/ml catalase added just prior to hypoxanthine and xanthine oxidase exposure
Description: Fibroblasts derived from the skin of a homozygous line of transgenic mice expressing the 5.2-kb human elastin promoter, linked to a CAT reporter gene which enables measurement of elastin promoter activation, as previously described (Bernstein et al. J Invest Dermatol 105, 269-273, 1995; and Bernstein et al. Photochem Photobiol 64:369-74, 1996) were utilized. Although phenotypically normal, these mice express the human elastin promoter when assayed for CAT activity (Hsu-Wong et al. J. Biol. Chem. 269: 18072-18075, 1994; Bernstein et al. J Invest Dermatol 105, 269-273, 1995; and Bernstein et al. Photochem Photobiol 64:369-74, 1996). […]
DMEM with 10% FCS was removed, cells were rinsed in phosphate buffered saline (PBS), and DMEM was replaced without the addition of FCS. […] The optimum time span for incubation of cells with hypoxanthine/xanthine oxidase was determined by exposing cells to hypoxanthine/xanthine oxidase for 15, 30, 60, 90 and 120 minutes and determining CAT activity as outlined in Example 3. […]
To measure the expression of the human elastin promoter/CAT reporter gene construct in the skin of transgenic mice and in fibroblast cultures established from these animals, CAT activity was determined. […]

catalase
effect on the hypoxanthine/xanthine oxidase-induced increase in elastin promoter activity: fully eliminated this increase
human elastin promoter activity (CAT assay), fold of untreated controls (mean±sem) (90 minutes): 1.0±0.1 fold
